Common to all, as to type: cell-based
Experiment [1] deals with V84. The experiment is described as follows: MIC by gradient plate in vitro method, V84 (penicillin resistant Staphylococcus). The conditions noted are these: read-out: Minimum Inhibitory Concentration. The source says: (§1) The antibiotic activity of the cephalosporin compounds of this invention is illustrated by the data provided in the following Table of representative compounds. The values in the Table are the minimum inhibitory concentrations (MIC) for the test compounds against the indicated microorganisms. The MIC values were obtained using the gradient plate in vitro method for determining antibiotic activity.
(§2) ^1 Test organisms V41, V32, and V84 are penicillin resistant
(§3) Staphylococcus. X-400 is a methicillin resistant Staphylococcus.

Experiment [2] deals with Serratia marcescens. The experiment is described as follows: MIC by gradient plate in vitro method, Serratia marcescens. Particulars: read-out: Minimum Inhibitory Concentration.
Text: as §1

Experiment [3] concerns Klebsiella pneumoniae. The experiment is described as follows: MIC by gradient plate in vitro method, Klebsiella pneumoniae. The conditions noted are these: read-out: Minimum Inhibitory Concentration.
Text: as §1

For experiment [4], the system named is Aerobacter aerogenes. The experiment is described as follows: MIC by gradient plate in vitro method, Aerobacter aerogenes. Particulars: Klebsiella aerogenes, read-out: Minimum Inhibitory Concentration.
Text: as §1

Experiment [5] concerns V41. The experiment is described as follows: MIC by gradient plate in vitro method, V41 (penicillin resistant Staphylococcus). Particulars: read-out: Minimum Inhibitory Concentration.
Text: as §1, §2, §3

In experiment [6] the test system is V32. The experiment is described as follows: MIC by gradient plate in vitro method, V32 (penicillin resistant Staphylococcus). The conditions noted are these: read-out: Minimum Inhibitory Concentration.
Text: as §1, §2, §3

The subject of experiment [7] is X400. The experiment is described as follows: MIC by gradient plate in vitro method, X400 (methicillin resistant Staphylococcus). Particulars: read-out: Minimum Inhibitory Concentration.
Text: as §1, §3

The subject of experiment [8] is Escherichia coli. The experiment is described as follows: MIC by gradient plate in vitro method, Escherichia coli. The conditions noted are these: read-out: Minimum Inhibitory Concentration.
Text: as §1

Experiment [9] concerns Shigella sp. The experiment is described as follows: MIC by gradient plate in vitro method, Shigella sp. The conditions noted are these: read-out: Minimum Inhibitory Concentration.
Text: as §1

Experiment [10] has as its system Pseudomonas aeruginosa. The experiment is described as follows: MIC by gradient plate in vitro method, Pseudomonas aeruginosa. Particulars: read-out: Minimum Inhibitory Concentration.
Text: as §1

Experiment [11] has as its system Salmonella heidelberg. The experiment is described as follows: MIC by gradient plate in vitro method, Salmonella heidelberg. Particulars: Salmonella enterica, read-out: Minimum Inhibitory Concentration.
Text: as §1

Structures are written as SMILES. ≈ marks a conversion by molar mass, not a printed value.

Turning to `CC(=O)OCC1=C(C(=O)O)N2C(=O)C(NC(=O)C(NC(=O)n3c(=O)[nH]c4ccccc43)c3ccccc3)[C@H]2SC1` (stereo partly drawn) [Test Compound A, 7-[α-(2,3-Dihydro-2-oxo-1H-benzimidazol-1-ylcarbonylamino)phenylacetamido]-3-acetoxymethyl-3-cephem-4-carboxylic acid], the MIC was 8 mg/L (≈ 14.1 µM) in experiment [1]; above 200 mg/L in experiment [2]; 90 mg/L (≈ 159 µM) in experiment [3]; 140 mg/L (≈ 248 µM) in [4]; 8 mg/L (≈ 14.1 µM) in experiment [5]; 11 mg/L (≈ 19.4 µM) in experiment [6]. In addition, the MIC in experiment [7] was above 20 mg/L; in [8], 140 mg/L (≈ 248 µM); in experiment [9] it was 100 mg/L (≈ 177 µM); in experiment [10], 16 mg/L (≈ 28.3 µM); in experiment [11], 120 mg/L (≈ 212 µM).
Take `Cn1nnnc1SCC1=C(C(=O)O)N2C(=O)C(NC(=O)C(NC(=O)n3c(=O)[nH]c4ccccc43)c3ccccc3)[C@H]2SC1` (stereo partly drawn) [Test Compound B, 7-[α-(2,3-Dihydro-2-oxo-1H-benzimidazol-1-ylcarbonylamino)phenylacetamido]-3-(1-methyltetrazol-5-ylthiomethyl)-3-cephem-4-carboxylic acid]: the MIC is 0.9 mg/L (≈ 1.45 µM) in experiment [1]; 120 mg/L (≈ 193 µM) in experiment [2]; 7 mg/L (≈ 11.3 µM) in [3]; 21.8 mg/L (≈ 35.1 µM) in experiment [4]; 1 mg/L (≈ 1.61 µM) in [5]; 6 mg/L (≈ 9.65 µM) in experiment [6]. Further, the MIC is above 20 mg/L in [7]; 9 mg/L (≈ 14.5 µM) in experiment [8]; 16 mg/L (≈ 25.7 µM) in experiment [9]; 12 mg/L (≈ 19.3 µM) in [10]; 15 mg/L (≈ 24.1 µM) in experiment [11].
Regarding `CC(=O)OCC1=C(C(=O)O)N2C(=O)C(NC(=O)C(NC(=O)n3c(=O)n(C)c4ccccc43)c3ccccc3)[C@H]2SC1` (stereo partly drawn) [Test Compound C, 7-[α-(3-Methyl-2,3-dihydro-2-oxo-1H-benzimidazol-1-ylcarbonylamino)phenylacetamido]-3-acetoxymethyl-3-cephem-4-carboxylic acid], the MIC in experiment [1] is 0.9 mg/L (≈ 1.55 µM); in experiment [2] it was above 200 mg/L; in experiment [3] it was 25 mg/L (≈ 43.1 µM); in experiment [4], 120 mg/L (≈ 207 µM); in experiment [5], 5 mg/L (≈ 8.63 µM); in [6], 6 mg/L (≈ 10.4 µM). Further, the MIC in experiment [7] is above 20 mg/L; in [8], 72.5 mg/L (≈ 125 µM); in experiment [9] it was 55 mg/L (≈ 94.9 µM); in experiment [10] it was 8.5 mg/L (≈ 14.7 µM); in experiment [11], 80 mg/L (≈ 138 µM).
Turning to `Cn1nnnc1SCC1=C(C(=O)O)N2C(=O)C(NC(=O)C(NC(=O)n3c(=O)n(C)c4ccccc43)c3ccccc3)[C@H]2SC1` (stereo partly drawn) [Test Compound D, 7-[α-(3-Methyl-2,3-dihydro-2-oxo-1H-benzimidazol-1-ylcarbonylamino)phenylacetamido]-3-(1-methyltetrazol-5-ylthiomethyl)-3-cephem-4-carboxylic acid], the MIC was 0.6 mg/L (≈ 0.944 µM) in experiment [1]; above 200 mg/L in experiment [2]; 19 mg/L (≈ 29.9 µM) in experiment [3]; 30 mg/L (≈ 47.2 µM) in experiment [4]; 3 mg/L (≈ 4.72 µM) in experiment [5]; 3 mg/L (≈ 4.72 µM) in experiment [6]. Further, the MIC in experiment [7] was 16 mg/L (≈ 25.2 µM); in [8], 14 mg/L (≈ 22 µM); in [9] it was 15 mg/L (≈ 23.6 µM); in [10], 8 mg/L (≈ 12.6 µM); in experiment [11], 18 mg/L (≈ 28.3 µM).
As for `NC(=O)OCC1=C(C(=O)O)N2C(=O)C(NC(=O)C(NC(=O)n3c(=O)[nH]c4ccccc43)c3ccc(O)cc3)[C@H]2SC1` (stereo partly drawn) [Test Compound E, 7-[α-(2,3-dihydro-2-oxo-1H-benzimidazol-1-ylcarbonylamino)-4-hydroxyphenylacetamido]-3-carbamoyloxymethyl-3-cephem-4-carboxylic acid], the MIC in experiment [1] is 0.7 mg/L (≈ 1.2 µM); in experiment [2], above 200 mg/L; in experiment [3] it was 100 mg/L (≈ 172 µM); in experiment [4] it was above 200 mg/L; in [5], 5 mg/L (≈ 8.58 µM); in experiment [6] it was 5 mg/L (≈ 8.58 µM). In addition, the MIC turned out to be 180 mg/L (≈ 309 µM) in experiment [7]; 160 mg/L (≈ 275 µM) in experiment [8]; 120 mg/L (≈ 206 µM) in experiment [9]; 10 mg/L (≈ 17.2 µM) in [10]; 120 mg/L (≈ 206 µM) in experiment [11].
